These results are taken from publication PMC5664514 (Proceedings of the National Academy of Sciences of the …, 2017).

For data set [1], the system named is BDNF. The following applies: 0.8–5 mM; cited from earlier work.
Data set [2] deals with HEK/APPsw cells. Description: Western blot of APP metabolites, ADAM10, BACE1, BDNF in HEK/APPsw cells. The format is cell-based, human. As to conditions: 10 μM, vs DMSO. A general note: A western blot detects proteins with antibodies after separation by electrophoresis.
For the next data set, the system named is APP-PS1-21 AD mice. The following applies: 2 mg/d orally, 10-mo-old mice; cited from earlier work.
For data set [3], the system named is Tg2576 AD mice. The following applies: 25 mg/kg and 50 mg/kg; cited from earlier work.
The next data set relates to aged APP/PS1 mice. As to conditions: 50 mg/kg i.p.; cited from earlier work.
In data set [4] the test system is HEK/APPsw cells. In words: CellTiter-Glo luminescent cell viability assay. Type of data set: cell-based. The following applies: 10 μM, 48 h. Background: ATP-based viability assays read luminescence as a measure of living cells.
Data set [5] concerns BDNF. The following applies: cited from earlier work.
Data set [6] concerns Tg2576 AD mice. As to conditions: 200 mg/kg; cited from earlier work.
For a further data set, the system named is ADAM10. As to conditions: via HDAC2/3 mechanism involving USF-1; cited from earlier work.

On to `CC(O)CC(=O)O` (stereo not drawn) [β-hydroxybutyrate], for which the BDNF expression result in the data set on BDNF [1] is “increase BDNF expression”.

Take `C=C(C)[C@@H](CC=C(C)C)C[C@@]12C[C@@H](CC=C(C)C)C(C)(C)[C@@](CC=C(C)C)(C(=O)C(C(=O)c3ccc(O)c(O)c3)=C1O)C2=O` [garcinol]: in the data set on HEK/APPsw cells [2], the “BACE1 protein level, change (Western blot)” value is given as 54.3%; the “mature APP, change (Western blot)” value came to 37.9%; the “sAPPα, change (Western blot)” value is reported as −33.6%.

As for `O=C(CCCCCCC(=O)Nc1ccccc1)NO` [SAHA, suberoylanilide hydroxamic acid], in the data set with APP-PS1-21 AD mice, the Aβ plaques entry is reported as “no significant differences”, the H4K12 acetylation entry is reported as “increased H4K12 acetylation” and the spatial memory result is listed as “partial improvement of spatial memory”. Moreover, in the data set with Tg2576 AD mice [3], the fear conditioning behavior result is recorded as “not behaviorally” and the “synaptic plasticity (long-term potentiation)” value was “positive effects on synaptic plasticity”. In the data set with aged APP/PS1 mice, the cognitive behavior result is given as “improvement of cognitive behavior”. In addition, the cell viability entry in the data set on HEK/APPsw cells [4] is listed as “significantly reduce cell viability”. In addition, the BDNF gene expression result in the data set on BDNF [5] is recorded as “increase BDNF gene expression”.

As for `O=C([O-])CCCc1ccccc1.[Na+]` [sodium 4-phenylbutyrate], the memory result with Tg2576 AD mice [6] is “positive effects on memory”.

For the molecule `O=C(/C=C/C#Cc1cccc(NS(=O)(=O)c2ccccc2)c1)NO` [oxamflatin], the cell viability result with HEK/APPsw cells [4] is given as “significantly reduce cell viability”.

For `CCC(=O)CCCCC[C@@H]1NC(=O)[C@H]2CCCCN2C(=O)[C@H]([C@@H](C)CC)NC(=O)[C@H](Cc2cn(OC)c3ccccc23)NC1=O` [apicidin], the ADAM10 expression result in the data set with ADAM10 is “up-regulating the expression of ADAM10”.
